One block for each molecule: values may come before it. Activity calls are given as the source filed them. The rule behind the calls is not given here.
Key:
Mushroom tyrosinase [1] = target: T1, Mushroom tyrosinase (Agaricus bisporus, UniProt O42713+Q00024+C7FF04+C7FF05)
Description: Inhibition of diphenolase activity of mushroom tyrosinase using L-DOPA substrate

B16-F10 [2] = assay: Reduction in alpha-MSH-induced TRP-1 expression in mouse B16-F10 cells at 0.041 uM incubated for 48 hrs by Western blot analysis; type: functional, cell-based
Mushroom tyrosinase [3] = target: T1, Mushroom tyrosinase; assay: Mixed type inhibition of mushroom tyrosinase using L-DOPA as substrate assessed as inhibitory constant measured for 15 mins by UV-vis spectrophotometry based Line-weaver Burk plot analysis
[4] = target: T2, Mushroom tyrosinase (Agaricus bisporus) (UniProt O42713+Q00024+C7FF04+C7FF05); assay: (§1) Inhibition of mushroom tyrosinase using L-DOPA as substrate measured for 15 mins by UV-vis spectrophotometry
Mushroom tyrosinase [5] = target: T1, Mushroom tyrosinase; assay: as §1
[6] = target: T3, Tyrosinase (Mus musculus) (UniProt P11344); assay: Inhibition of tyrosinase in mouse B16-F10 cells at 0.421 uM using L-DOPA as substrate incubated for 30 mins followed by substrate addition and measured after 40 mins; type: cell-based; conditions: time 70.0 min
T3 sequence (whole entry): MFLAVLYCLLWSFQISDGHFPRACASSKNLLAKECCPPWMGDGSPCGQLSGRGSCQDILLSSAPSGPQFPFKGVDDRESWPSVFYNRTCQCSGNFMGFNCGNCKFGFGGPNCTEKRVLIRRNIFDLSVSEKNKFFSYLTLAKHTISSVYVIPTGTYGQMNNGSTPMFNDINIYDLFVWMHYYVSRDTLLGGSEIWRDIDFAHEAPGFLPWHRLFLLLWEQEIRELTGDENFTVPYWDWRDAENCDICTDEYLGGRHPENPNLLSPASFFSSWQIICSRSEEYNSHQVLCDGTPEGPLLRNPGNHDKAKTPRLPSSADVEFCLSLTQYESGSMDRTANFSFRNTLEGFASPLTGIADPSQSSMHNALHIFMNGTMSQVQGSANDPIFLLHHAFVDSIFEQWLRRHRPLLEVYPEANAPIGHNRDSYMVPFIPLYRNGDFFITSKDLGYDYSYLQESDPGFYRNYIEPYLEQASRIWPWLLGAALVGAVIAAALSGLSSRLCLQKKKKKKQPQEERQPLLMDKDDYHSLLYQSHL

[7] = target: T2, Mushroom tyrosinase (Agaricus bisporus); assay: (§2) Inhibition of mushroom tyrosinase using DHICA as substrate measured for 15 mins by UV-vis spectrophotometry
Mushroom tyrosinase [8] = target: T1, Mushroom tyrosinase; assay: as §2
B16-F10 [9] = assay: Reduction in alpha-MSH-induced tyrosinase expression in mouse B16-F10 cells at 0.041 uM incubated for 48 hrs by Western blot analysis; type: functional, cell-based
B16-F10 [10] = assay: Inhibition of melanin production in mouse B16-F10 cells incubated for 48 hrs; type: functional, cell-based; conditions: dose 0-0.0421 µM
B16-F10 [11] = assay: Cytotoxicity against mouse B16-F10 cells assessed as reduction in cell viability at 42.1 uM incubated for 6 hrs by MTT assay; type: cell-based; conditions: b16-f10, 6 h
Mushroom tyrosinase [12] = target: T1, Mushroom tyrosinase; assay: Mixed type inhibition of mushroom tyrosinase using L-DOPA as substrate assessed as enzyme-substrate complex constant measured for 15 mins by UV-vis spectrophotometry based Line-weaver Burk plot analysis
M4Beu cell line = assay: Cytotoxicity against human M4Be cells assessed as reduction in cell viability at 42.1 uM incubated for 6 hrs by MTT assay; type: cell-based

IC50 (Mushroom tyrosinase [1]): 9000 µM
Structure (SMILES): CC1(C)S[C@@H]2[C@H](NC(=O)[C@H](N)c3ccc(O)cc3)C(=O)N2[C@H]1C(=O)O [AMOXICILLIN]

IC50 (Mushroom tyrosinase [1]): 100 µM
Structure (SMILES): OC1COC(O)C(O)C1O (racemic)

IC50 (Mushroom tyrosinase [1]): 3450 µM
Structure (SMILES): O=C(O)/C=C/c1ccc(Cn2ccnc2)cc1 [OZAGREL]

Structure (SMILES): N=C(N)NCCC[C@H](N)C(=O)NCCCNCCCNCCCCCNC(=O)[C@H](CC(N)=O)NC(=O)Cc1ccc(O)cc1O
inhibition (B16-F10 [2]): Active | Ki (Mushroom tyrosinase [3]): 10.77 µM | inhibition [4]: Dose-dependent effect | IC50 (Mushroom tyrosinase [5]): 8.34 µM | inhibition [6]: Active | inhibition [7]: Dose-dependent effect | IC50 (Mushroom tyrosinase [8]): 48.22 µM | inhibition (B16-F10 [9]): inactive | inhibition (B16-F10 [10]): Dose-dependent effect | Activity (B16-F10 [11]): Non-Toxic | Ki (Mushroom tyrosinase [12]): 20.36 µM | Activity (M4Beu cell line): Non-Toxic

IC50 (Mushroom tyrosinase [1]): 18.61 µM
Structure (SMILES): CC1(C)C=Cc2c(cc3c(c2O)C(=O)CC(c2ccc(O)cc2O)O3)O1 (configuration not stated) [DALENIN]

IC50 (Mushroom tyrosinase [1]): 42 µM
Structure (SMILES): S=C1NCC(c2ccccc2)O1 (configuration not stated)

Source: ChEMBL document CHEMBL4715764, “ArgTX-636, a polyamine isolated from spider venom: A novel class of melanogenesis inhibitors” (Bioorg Med Chem, 2016)
